Where “and” joins values, the source holds several entries; their conditions need not be identical. Equal values may be shown once. Inconclusive results and toxic doses are left out.
Test system: L1210 leukemia ip in BDF1 mice, survival T/C
Assay: NCI In Vivo Anticancer Drug Screen. Data for tumor model L1210 Leukemia (intraperitoneal) in B6D2F1 (BDF1) mice
Conditions: endpoint: mean survival time, higher = longer survival
Method in brief: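 Tumor cells were implanted, animals were treated, and survival was followed. The result divides the treated measurement by the vehicle-control measurement.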

[1] = dose: 100.0 mg/kg/injection, schedule: Q01DX009 (ip), vehicle: saline with Tween-80
[2] = dose: 100.0 mg/kg/injection, schedule: Q04DX003 (ip), vehicle: saline with Tween-80
[3] = dose: 200.0 mg/kg/injection, schedule: Q01DX009 (ip), vehicle: saline with Tween-80
[4] = dose: 200.0 mg/kg/injection, schedule: Q04DX003 (ip), vehicle: saline with Tween-80
[5] = dose: 400.0 mg/kg/injection, schedule: Q01DX009 (ip), vehicle: saline with Tween-80
[6] = dose: 400.0 mg/kg/injection, schedule: Q04DX003 (ip), vehicle: saline with Tween-80
[7] = dose: 100.0 mg/kg/injection, schedule: Q01DX009 (ip), vehicle: Klucel (hydroxypropylcellulose) (HPC)
[8] = dose: 100.0 mg/kg/injection, schedule: Q04DX003 (ip), vehicle: Klucel (hydroxypropylcellulose) (HPC)
[9] = dose: 200.0 mg/kg/injection, schedule: Q01DX009 (ip), vehicle: Klucel (hydroxypropylcellulose) (HPC)
[10] = dose: 200.0 mg/kg/injection, schedule: Q04DX003 (ip), vehicle: Klucel (hydroxypropylcellulose) (HPC)
[11] = dose: 100.0 mg/kg/injection, schedule: Q01DX001 (ip), vehicle: saline with Tween-80
[12] = dose: 200.0 mg/kg/injection, schedule: Q01DX001 (ip), vehicle: saline with Tween-80
[13] = dose: 400.0 mg/kg/injection, schedule: Q01DX001 (ip), vehicle: saline with Tween-80
[14] = dose: 100.0 mg/kg/injection, schedule: Q04DX002 (ip), vehicle: saline with Tween-80
[15] = dose: 200.0 mg/kg/injection, schedule: Q04DX002 (ip), vehicle: saline with Tween-80
[16] = dose: 400.0 mg/kg/injection, schedule: Q04DX002 (ip), vehicle: saline with Tween-80

COc1ccc(NC(=O)N(CCCl)N=O)cc1
T/C (dose: 0.12 mg/kg/injection, schedule: Q01DX Z (ip), vehicle: carboxymethylcellulose (CMC)): 112 % of control | T/C (dose: 1.25 mg/kg/injection, schedule: Q01DX Z (ip), vehicle: carboxymethylcellulose (CMC)): 123 % of control | T/C (dose: 4.4 mg/kg/injection, schedule: Q01DX015 (ip), vehicle: saline): 200 % of control | T/C (dose: 4.4 mg/kg/injection, schedule: Q01DX Z (ip), vehicle: carboxymethylcellulose (CMC)): 192 % of control | T/C (dose: 5.0 mg/kg/injection, schedule: Q01DX Z (ip), vehicle: carboxymethylcellulose (CMC)): 160 % of control | T/C (dose: 6.6 mg/kg/injection, schedule: Q01DX015 (ip), vehicle: saline): 224 % of control | T/C (dose: 6.6 mg/kg/injection, schedule: Q01DX Z (ip), vehicle: carboxymethylcellulose (CMC)): 222 % of control | T/C (dose: 9.9 mg/kg/injection, schedule: Q01DX001 (ip), vehicle: carboxymethylcellulose (CMC)): 160 % of control | T/C (dose: 10.0 mg/kg/injection, schedule: Q01DX015 (ip), vehicle: saline): 196 % of control | T/C (dose: 10.0 mg/kg/injection, schedule: Q01DX Z (ip), vehicle: carboxymethylcellulose (CMC)): 187 % of control | T/C (dose: 15.0 mg/kg/injection, schedule: Q01DX015 (ip), vehicle: saline): 195 % of control | T/C (dose: 15.0 mg/kg/injection, schedule: Q01DX Z (ip), vehicle: carboxymethylcellulose (CMC)): 120 % of control | T/C (dose: 19.8 mg/kg/injection, schedule: Q01DX001 (ip), vehicle: carboxymethylcellulose (CMC)): 166 % of control | T/C (dose: 20.0 mg/kg/injection, schedule: Q01DX Z (ip), vehicle: carboxymethylcellulose (CMC)): 93 % of control | T/C (dose: 39.6 mg/kg/injection, schedule: Q01DX001 (ip), vehicle: carboxymethylcellulose (CMC)): 206 % of control | T/C (dose: 60.0 mg/kg/injection, schedule: Q01DX001 (ip), vehicle: saline): 158 % of control | T/C (dose: 79.2 mg/kg/injection, schedule: Q01DX001 (ip), vehicle: carboxymethylcellulose (CMC)): 105 % of control | T/C (dose: 120.0 mg/kg/injection, schedule: Q01DX001 (ip), vehicle: saline): 111 % of control | T/C (dose: 240.0 mg/kg/injection, schedule: Q01DX001 (ip), vehicle: saline): 156 % of control

CCOC(=O)C(CC(OCC)OCC)C(=O)OCC
T/C [1]: 95 % of control | T/C [2]: 101 % of control | T/C [3]: 96 % of control | T/C [4]: 108 % of control | T/C [5]: 96 % of control | T/C [6]: 100 % of control

O=CNC(CSC(=O)c1ccccc1)C(=O)O (centres undefined)
T/C [7]: 101 % of control | T/C [8]: 97 % of control | T/C [9]: 101 % of control | T/C [10]: 97 % of control | T/C (dose: 400.0 mg/kg/injection, schedule: Q04DX003 (ip), vehicle: Klucel (hydroxypropylcellulose) (HPC)): 94 % of control

CC#CC#Cc1cccc(=O)o1
T/C (dose: 25.0 mg/kg/injection, schedule: Q04DX003 (ip), vehicle: other): 90 % of control | T/C (dose: 50.0 mg/kg/injection, schedule: Q04DX003 (ip), vehicle: other): 90 % of control | T/C (dose: 100.0 mg/kg/injection, schedule: Q04DX003 (ip), vehicle: other): 108 % of control

Nc1ccc(C(=O)O)c([N+](=O)[O-])c1
T/C (dose: 100.0 mg/kg/injection, schedule: Q01DX009 (ip), vehicle: saline): 102 % of control | T/C (dose: 100.0 mg/kg/injection, schedule: Q04DX003 (ip), vehicle: saline): 98 % of control | T/C (dose: 200.0 mg/kg/injection, schedule: Q01DX009 (ip), vehicle: saline): 100 % of control | T/C (dose: 200.0 mg/kg/injection, schedule: Q04DX003 (ip), vehicle: saline): 93 % of control | T/C (dose: 400.0 mg/kg/injection, schedule: Q01DX009 (ip), vehicle: saline): 100 % of control | T/C (dose: 400.0 mg/kg/injection, schedule: Q04DX003 (ip), vehicle: saline): 94 % of control

CCN(CC)CCCOC(=O)C(CCC(C)C)c1ccccc1C (centres undefined)
T/C (dose: 12.5 mg/kg/injection, schedule: Q01DX009 (ip), vehicle: saline): 93 % of control | T/C (dose: 12.5 mg/kg/injection, schedule: Q04DX003 (ip), vehicle: saline): 102 % of control | T/C (dose: 25.0 mg/kg/injection, schedule: Q01DX009 (ip), vehicle: saline): 102 % of control | T/C (dose: 25.0 mg/kg/injection, schedule: Q04DX003 (ip), vehicle: saline): 100 % of control | T/C (dose: 50.0 mg/kg/injection, schedule: Q01DX009 (ip), vehicle: saline): 93 % of control | T/C (dose: 50.0 mg/kg/injection, schedule: Q04DX003 (ip), vehicle: saline): 94 % of control

CC(=O)Nc1ccc(C(C)C)cc1
T/C [7]: 103 % of control | T/C [9]: 95 % of control | T/C (dose: 400.0 mg/kg/injection, schedule: Q01DX009 (ip), vehicle: Klucel (hydroxypropylcellulose) (HPC)): 94 % of control

CCCCSc1nc2ccc([N+](=O)[O-])cc2s1
T/C (dose: 100.0 mg/kg/injection, schedule: Q04DX002 (ip), vehicle: gum acacia): 95 % of control | T/C (dose: 200.0 mg/kg/injection, schedule: Q04DX002 (ip), vehicle: gum acacia): 95 % of control | T/C (dose: 400.0 mg/kg/injection, schedule: Q04DX002 (ip), vehicle: gum acacia): 95 % of control

CCN(CC)c1cc[c]([Hg][O]C(C)=O)cc1
T/C (dose: 1.56 mg/kg/injection, schedule: Q04DX003 (ip), vehicle: saline with Tween-80): 92 % of control | T/C (dose: 3.13 mg/kg/injection, schedule: Q04DX003 (ip), vehicle: saline with Tween-80): 90 % of control | T/C (dose: 6.25 mg/kg/injection, schedule: Q04DX003 (ip), vehicle: saline with Tween-80): 93 % of control and 94 % of control | T/C (dose: 12.5 mg/kg/injection, schedule: Q04DX003 (ip), vehicle: saline with Tween-80): 93 % of control

c1cc[c]([Sn]([CH2]Cc2ccncc2)([c]2ccccc2)[c]2ccccc2)cc1
T/C (dose: 100.0 mg/kg/injection, schedule: Q04DX002 (sc), vehicle: olive oil, sesame oil, peanut oil): 110 % of control | T/C (dose: 200.0 mg/kg/injection, schedule: Q04DX002 (sc), vehicle: olive oil, sesame oil, peanut oil): 100 % of control | T/C (dose: 400.0 mg/kg/injection, schedule: Q04DX002 (sc), vehicle: olive oil, sesame oil, peanut oil): 103 % of control

CC(=O)N[C@H]1CC[C@H]2[C@@H]3CCC4=CC(=O)CC[C@]4(C)[C@H]3CC[C@]12C
T/C [2]: 86 % of control | T/C [4]: 92 % of control | T/C [6]: 86 % of control

CC(C)=CCC(/C=N/N=C(N)N)C(C)C (centres undefined)
T/C (dose: 3.0 mg/kg/injection, schedule: Q01DX Z (ip), vehicle: saline): 96 % of control | T/C (dose: 7.0 mg/kg/injection, schedule: Q01DX Z (ip), vehicle: saline): 105 % of control | T/C (dose: 15.0 mg/kg/injection, schedule: Q01DX Z (ip), vehicle: saline): 91 % of control | T/C (dose: 15.0 mg/kg/injection, schedule: Q01DX Z (oral), vehicle: saline): 104 % of control | T/C (dose: 30.0 mg/kg/injection, schedule: Q01DX Z (ip), vehicle: saline): 94 % of control | T/C (dose: 30.0 mg/kg/injection, schedule: Q01DX Z (oral), vehicle: saline): 101 % of control | T/C (dose: 60.0 mg/kg/injection, schedule: Q01DX Z (oral), vehicle: saline): 87 % of control

CCC(=O)Nc1cccc(OP(=O)(N(C)C)N(C)C)c1
T/C [11]: 96 % of control | T/C [12]: 102 % of control | T/C [13]: 88 % of control

C[CH2][Ge]([CH2]C)[CH2]C.C[CH2][Ge]([CH2]C)[CH2]C.C[CH2][Ge][CH2]C
T/C [14]: 103 % of control | T/C [15]: 95 % of control | T/C [16]: 319 % of control

O=Nc1ccc(O)c2ncccc12
T/C [8]: 92 % of control | T/C [10]: 99 % of control

COc1ccc(/C=N/NC(=O)C[n+]2ccccc2)c(OC)c1
T/C (dose: 25.0 mg/kg/injection, schedule: Q01DX009 (ip), vehicle: saline with Tween-80): 110 % of control | T/C (dose: 50.0 mg/kg/injection, schedule: Q01DX009 (ip), vehicle: saline with Tween-80): 101 % of control | T/C [1]: 103 % of control | T/C [2]: 94 % of control

CCOC(=O)c1ccc(NC(=O)Oc2ccc3ccccc3c2)cc1
T/C [11]: 96 % of control | T/C [1]: 100 % of control and 90 % of control | T/C [14]: 99 % of control and 88 % of control | T/C [12]: 93 % of control and 86 % of control | T/C [3]: 92 % of control and 100 % of control | T/C [15]: 97 % of control and 91 % of control | T/C [13]: 93 % of control and 91 % of control | T/C [5]: 100 % of control and 90 % of control | T/C [16]: 92 % of control and 88 % of control

Source: PubChem BioAssay AID248 (DTP/NCI, 2004)
